{"source": "patent US9204653B2", "about": "“5-fluoro pyrimidine derivatives” (DOW AGROSCIENCES LLC, priority 2008, dated 2015)", "tested_on": "Mycosphaerella graminicola; Anamorph: Septoria tritici; Bayer Code SEPTTR", "test": "Leaf blotch of wheat, foliar fungicide treatment, one day protectant (1DP) or three day curative (3DC)", "format": "in vivo, Septoria tritici on wheat plants (variety Yuma)", "conditions": "Zymoseptoria tritici; for pest or weed control at 50 ppm / pest or weed control at 200 ppm: % disease control rating", "key": {"[1]": {"conditions": "24 h, one day protectant, 25 ppm, rating of percent disease control, read-out: SETTTR 1DP 25 ppm"}, "[2]": {"conditions": "24 h, one day protectant, rating of percent disease control, read-out: SEPTTR 1DP 100 ppm"}, "[3]": {"conditions": "72 h, three day curative, 25 ppm, rating of percent disease control, read-out: SEPTTR 3DC 25 ppm"}, "[4]": {"conditions": "72 h, three day curative, rating of percent disease control, read-out: SEPTTR 3DC 100 ppm"}, "[5]": {"conditions": "24 h, one day protectant (1DP), 25 ppm, rating of percent disease control, read-out: SETTTR 1DP 25 ppm"}, "[6]": {"conditions": "24 h, one day protectant (1DP), rating of percent disease control, read-out: SEPTTR 1DP 100 ppm"}, "[7]": {"conditions": "72 h, three day curative (3DC), 25 ppm, rating of percent disease control, read-out: SEPTTR 3DC 25 ppm"}, "[8]": {"conditions": "72 h, three day curative (3DC), rating of percent disease control, read-out: SEPTTR 3DC 100 ppm"}, "[9]": {"conditions": "24 h, one day protectant (1DP), 25 ppm (first 1DP column), percent control rating, read-out: SETTTR 1DP 25 ppm"}, "[10]": {"conditions": "24 h, one day protectant (1DP), 25 ppm as printed (second 1DP column), percent control rating, read-out: SETTTR 1DP 25 ppm"}, "[11]": {"conditions": "72 h, three day curative (3DC), 25 ppm, percent control rating, read-out: SEPTTR 3DC 25 ppm"}, "[12]": {"conditions": "72 h, three day curative (3DC), percent control rating, read-out: SEPTTR 3DC 100 ppm"}}, "note": "Like-named read-outs stand apart in the source and are kept apart here."}
{"smiles": "Cc1cccc(COc2ncc(F)c(N)n2)c1C", "note": "[Compound 602]", "values": [{"measurement": "pest or weed control at 25 ppm", "setting": "[1]", "value": "0 to 25", "unit": "%"}, {"measurement": "pest or weed control at 100 ppm", "setting": "[2]", "value": "51 to 75", "unit": "%"}, {"measurement": "pest or weed control at 25 ppm", "setting": "[3]", "value": "0 to 25", "unit": "%"}, {"measurement": "pest or weed control at 100 ppm", "setting": "[4]", "value": "0 to 25", "unit": "%"}]}
{"smiles": "Cn1ccc(COc2ncc(F)c(NCOCc3ccccc3)n2)n1", "note": "[Compound 412]", "values": [{"measurement": "pest or weed control at 25 ppm", "setting": "[5]", "value": "0 to 25", "unit": "%"}, {"measurement": "pest or weed control at 100 ppm", "setting": "[6]", "value": "76 to 100", "unit": "%"}, {"measurement": "pest or weed control at 25 ppm", "setting": "[7]", "value": "0 to 25", "unit": "%"}, {"measurement": "pest or weed control at 100 ppm", "setting": "[8]", "value": "51 to 75", "unit": "%"}]}
{"smiles": "COc1ncc(F)c(NNc2ccc(Cl)nn2)n1", "note": "[Compound 1048]", "values": [{"measurement": "pest or weed control at 25 ppm", "setting": "[9]", "value": "0 to 25", "unit": "%"}, {"measurement": "pest or weed control at 25 ppm", "setting": "[10]", "value": "0 to 25", "unit": "%"}, {"measurement": "pest or weed control at 25 ppm", "setting": "[11]", "value": "0 to 25", "unit": "%"}, {"measurement": "pest or weed control at 100 ppm", "setting": "[12]", "value": "0 to 25", "unit": "%"}]}
{"smiles": "CCCNC(=O)N(C(=O)NCCC)c1nc(OCc2cccc(F)c2)ncc1F", "note": "[Compound 445]", "values": [{"measurement": "pest or weed control at 25 ppm", "setting": "[5]", "value": "51 to 75", "unit": "%"}, {"measurement": "pest or weed control at 100 ppm", "setting": "[6]", "value": "76 to 100", "unit": "%"}, {"measurement": "pest or weed control at 25 ppm", "setting": "[7]", "value": "76 to 100", "unit": "%"}, {"measurement": "pest or weed control at 100 ppm", "setting": "[8]", "value": "76 to 100", "unit": "%"}]}
{"smiles": "CCCCOc1ccc(COc2ncc(F)c(N)n2)cc1", "note": "[Compound 537]", "values": [{"measurement": "pest or weed control at 25 ppm", "setting": "[5]", "value": "76 to 100", "unit": "%"}, {"measurement": "pest or weed control at 100 ppm", "setting": "[6]", "value": "76 to 100", "unit": "%"}, {"measurement": "pest or weed control at 25 ppm", "setting": "[7]", "value": "76 to 100", "unit": "%"}, {"measurement": "pest or weed control at 100 ppm", "setting": "[8]", "value": "76 to 100", "unit": "%"}]}
{"smiles": "COc1cccc(COc2ncc(F)c(NC(=O)OCc3ccccc3)n2)c1", "note": "[Compound 531]", "values": [{"measurement": "pest or weed control at 25 ppm", "setting": "[5]", "value": "76 to 100", "unit": "%"}, {"measurement": "pest or weed control at 100 ppm", "setting": "[6]", "value": "76 to 100", "unit": "%"}, {"measurement": "pest or weed control at 25 ppm", "setting": "[7]", "value": "76 to 100", "unit": "%"}, {"measurement": "pest or weed control at 100 ppm", "setting": "[8]", "value": "76 to 100", "unit": "%"}]}
{"smiles": "CCOCNc1nc(OCc2ccn(C)n2)ncc1F", "note": "[Compound 374]", "values": [{"measurement": "pest or weed control at 25 ppm", "setting": "[5]", "value": "51 to 75", "unit": "%"}, {"measurement": "pest or weed control at 100 ppm", "setting": "[6]", "value": "76 to 100", "unit": "%"}, {"measurement": "pest or weed control at 25 ppm", "setting": "[7]", "value": "76 to 100", "unit": "%"}, {"measurement": "pest or weed control at 100 ppm", "setting": "[8]", "value": "76 to 100", "unit": "%"}]}
{"smiles": "COc1cccc(COc2ncc(F)c(/N=C/N(C)C)n2)c1", "note": "[Compound 692]", "values": [{"measurement": "pest or weed control at 25 ppm", "setting": "[1]", "value": "76 to 100", "unit": "%"}, {"measurement": "pest or weed control at 100 ppm", "setting": "[2]", "value": "76 to 100", "unit": "%"}, {"measurement": "pest or weed control at 25 ppm", "setting": "[3]", "value": "76 to 100", "unit": "%"}, {"measurement": "pest or weed control at 100 ppm", "setting": "[4]", "value": "76 to 100", "unit": "%"}]}
{"smiles": "C=CCOc1ncc(F)c(/N=N/c2cc(C)ccc2C)n1", "note": "[Compound 1109]", "values": [{"measurement": "pest or weed control at 25 ppm", "setting": "[9]", "value": "0 to 25", "unit": "%"}, {"measurement": "pest or weed control at 25 ppm", "setting": "[10]", "value": "0 to 25", "unit": "%"}, {"measurement": "pest or weed control at 25 ppm", "setting": "[11]", "value": "0 to 25", "unit": "%"}, {"measurement": "pest or weed control at 100 ppm", "setting": "[12]", "value": "0 to 25", "unit": "%"}]}
{"smiles": "C/C(=N\\c1nc(OCc2ccc(F)cc2)ncc1F)N(C)C", "note": "[Compound 727]", "values": [{"measurement": "pest or weed control at 25 ppm", "setting": "[1]", "value": "76 to 100", "unit": "%"}, {"measurement": "pest or weed control at 100 ppm", "setting": "[2]", "value": "76 to 100", "unit": "%"}, {"measurement": "pest or weed control at 25 ppm", "setting": "[3]", "value": "76 to 100", "unit": "%"}, {"measurement": "pest or weed control at 100 ppm", "setting": "[4]", "value": "76 to 100", "unit": "%"}]}
{"smiles": "COc1cccc(COc2ncc(F)c(NS(=O)(=O)C(C)C)n2)c1", "note": "[Compound 1012]", "values": [{"measurement": "pest or weed control at 25 ppm", "setting": "[9]", "value": "0 to 25", "unit": "%"}, {"measurement": "pest or weed control at 25 ppm", "setting": "[10]", "value": "0 to 25", "unit": "%"}, {"measurement": "pest or weed control at 25 ppm", "setting": "[11]", "value": "0 to 25", "unit": "%"}, {"measurement": "pest or weed control at 100 ppm", "setting": "[12]", "value": "0 to 25", "unit": "%"}]}
{"smiles": "CCCCCCOc1ncc(F)c(NC(=O)Nc2ccsc2)n1", "note": "[Compound 774]", "values": [{"measurement": "pest or weed control at 25 ppm", "setting": "[5]", "value": "0 to 25", "unit": "%"}, {"measurement": "pest or weed control at 100 ppm", "setting": "[6]", "value": "0 to 25", "unit": "%"}, {"measurement": "pest or weed control at 25 ppm", "setting": "[7]", "value": "0 to 25", "unit": "%"}, {"measurement": "pest or weed control at 100 ppm", "setting": "[8]", "value": "0 to 25", "unit": "%"}]}
{"smiles": "CC(C)NC(=O)Nc1nc(O)ncc1F", "note": "[Compound 971]", "values": [{"measurement": "pest or weed control at 25 ppm", "setting": "[9]", "value": "26 to 50", "unit": "%"}, {"measurement": "pest or weed control at 25 ppm", "setting": "[10]", "value": "26 to 50", "unit": "%"}, {"measurement": "pest or weed control at 25 ppm", "setting": "[11]", "value": "51 to 75", "unit": "%"}, {"measurement": "pest or weed control at 100 ppm", "setting": "[12]", "value": "76 to 100", "unit": "%"}]}
{"smiles": "Fc1cnc(OCCc2ccccc2)nc1NCc1ccc2c(c1)OCO2", "note": "[Compound 904]", "values": [{"measurement": "pest or weed control at 50 ppm", "setting": "24 h, one day protectant", "value": "0 to 25", "unit": "%"}, {"measurement": "pest or weed control at 200 ppm", "setting": "24 h, one day protectant", "value": "26 to 50", "unit": "%"}]}
{"smiles": "CC(C)=NNc1nc(OCc2ccc(F)cc2)ncc1F", "note": "[Compound 358]", "values": [{"measurement": "pest or weed control at 25 ppm", "setting": "[5]", "value": "0 to 25", "unit": "%"}, {"measurement": "pest or weed control at 100 ppm", "setting": "[6]", "value": "51 to 75", "unit": "%"}, {"measurement": "pest or weed control at 25 ppm", "setting": "[7]", "value": "26 to 50", "unit": "%"}, {"measurement": "pest or weed control at 100 ppm", "setting": "[8]", "value": "76 to 100", "unit": "%"}]}
{"smiles": "COc1ccc(CONc2nc(OC)ncc2F)cc1", "note": "[Compound 1076]", "values": [{"measurement": "pest or weed control at 25 ppm", "setting": "[9]", "value": "0 to 25", "unit": "%"}, {"measurement": "pest or weed control at 25 ppm", "setting": "[10]", "value": "0 to 25", "unit": "%"}, {"measurement": "pest or weed control at 25 ppm", "setting": "[11]", "value": "0 to 25", "unit": "%"}, {"measurement": "pest or weed control at 100 ppm", "setting": "[12]", "value": "26 to 50", "unit": "%"}]}
{"smiles": "CCCCCC(CC)Oc1ncc(F)c(N)n1", "note": "(stereo not drawn) [Compound 740]", "values": [{"measurement": "pest or weed control at 25 ppm", "setting": "[5]", "value": "0 to 25", "unit": "%"}, {"measurement": "pest or weed control at 100 ppm", "setting": "[6]", "value": "0 to 25", "unit": "%"}]}
{"smiles": "Fc1cnc(OCc2cccs2)nc1NCc1ccc(Cl)cc1", "note": "[Compound 945]", "values": [{"measurement": "pest or weed control at 50 ppm", "setting": "24 h, one day protectant", "value": "76 to 100", "unit": "%"}, {"measurement": "pest or weed control at 200 ppm", "setting": "24 h, one day protectant", "value": "76 to 100", "unit": "%"}]}
{"smiles": "Fc1ccccc1CNc1nc(OCc2ccccc2F)ncc1F", "note": "[Compound 809]", "values": [{"measurement": "pest or weed control at 50 ppm", "setting": "24 h, one day protectant", "value": "51 to 75", "unit": "%"}, {"measurement": "pest or weed control at 200 ppm", "setting": "24 h, one day protectant", "value": "76 to 100", "unit": "%"}]}
{"smiles": "O=C(Cc1ccccc1)Nc1nc(OCc2ccccc2)ncc1F", "note": "[Compound 792]", "values": [{"measurement": "pest or weed control at 25 ppm", "setting": "[5]", "value": "76 to 100", "unit": "%"}, {"measurement": "pest or weed control at 100 ppm", "setting": "[6]", "value": "76 to 100", "unit": "%"}, {"measurement": "pest or weed control at 25 ppm", "setting": "[7]", "value": "26 to 50", "unit": "%"}, {"measurement": "pest or weed control at 100 ppm", "setting": "[8]", "value": "51 to 75", "unit": "%"}]}
